Laboratory results taken from patent US9181181B2, “2-substituted-3-phenylpropionic acid derivatives and their use in the treatment of inflammatory bowel disease” (Albireo AB, priority 2007, dated 2015).
pEC50: −log10 of the molar value.

Experiments:
human PPARgamma = human PPARgamma (Homo sapiens (Human), UniProt P37231); assay: Transactivation (reporter gene) assay, GAL4-PPARgamma LBD in U-2 OS cells; type: cell-based; conditions: 40 h incubation, 16 μM Pioglitazone as 100% control, read-out: EC50 PPARγ
human PPARgamma, sequence (P37231 205-505): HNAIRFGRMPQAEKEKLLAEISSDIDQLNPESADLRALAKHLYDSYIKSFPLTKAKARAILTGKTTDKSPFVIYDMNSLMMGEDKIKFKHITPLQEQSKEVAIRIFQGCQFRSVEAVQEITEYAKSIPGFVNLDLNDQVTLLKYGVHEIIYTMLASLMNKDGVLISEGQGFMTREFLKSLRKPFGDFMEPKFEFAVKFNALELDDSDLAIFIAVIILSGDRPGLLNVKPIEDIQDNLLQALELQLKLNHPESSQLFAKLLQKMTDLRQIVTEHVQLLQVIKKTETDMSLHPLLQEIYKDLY
Description: (§1) Transactivation Assay Expression vectors were prepared by inserting the ligand binding domain cDNA (complementary DNA) of human PPARalpha (amino acid 168-468) and human PPARgamma (amino acid 205-505), 3′ to and in frame with, the yeast GAL4 transcription factor DNA binding domain and the nuclear localization signal from the T-antigen of Polyoma Virus into the mammalian expression vector pSGS (Stratagene). The resulting expression vectors pSGGAL-PPARalpha and pSGGAL-PPARgamma were used in co-transfection experiments together with a modified pGL3 promoter plasmid (Promega) containing five copies of the UAS GAL4 recognition site. 2.5 μg pSGGAL-PPARalpha or pSGGAL-PPARgamma were mixed with 25 μg pGL3p […] and 22.5 μg pBluescript (Stratagene) in 0.95 mL ice cold PBS containing between 9-12 million U-2 OS (human osteosarcoma) cells. The cell/DNA mixture was incubated on ice for 5 minutes and then divided between two 0.4 cm cuvettes and electroporated at 960 μF, 230 V using a BioRad electroporator. The two electroporation mixes were combined in assay medium [Dulbecco's Modified Eagle Medium w/o phenol red, (Gibco 11880-028) including 10% FBS (Foetal Bovine Serum), 1% PEST (Penicillin & Streptomycin), 20 mM Hepes, 2 mM L-Glutamine and 0.36% Glucose (Gibco 31966-021)] at 0.32 million cells/ml. 25 μl diluted, electroporated cells, were seeded into 384-well plates and allowed to adhere for 3-4 h at 37° C., 5% CO2 in a cell culture incubator. Test compounds in DMSO were diluted 40 fold in assay medium. 7 μl of diluted compound was added to the adhered electroporated cells and incubation was continued for 40 h in a cell culture incubator. Cells were lysed by adding 32 μl/well LucLite (Packard) and incubated at room temperature for 15 minutes. Luciferase activity was measured using a luminometry protocol on a Wallac Victor2 plate reader. 16 μM ETYA was used as the 100% control for humanPPARalpha activity and 16 μM Pioglitazone was used as the 100% control for humanPPARgamma activity. In Vivo Assay Determination of Plasma Clearance and Oral Bioavailability in Hamster or Mouse

human PPARalpha = human PPARalpha (Homo sapiens (Human), UniProt Q07869); assay: Transactivation (reporter gene) assay, GAL4-PPARalpha LBD in U-2 OS cells; type: cell-based; conditions: 40 h incubation, 16 μM ETYA as 100% control, read-out: EC50 PPARα
human PPARalpha, sequence (Q07869 168-468): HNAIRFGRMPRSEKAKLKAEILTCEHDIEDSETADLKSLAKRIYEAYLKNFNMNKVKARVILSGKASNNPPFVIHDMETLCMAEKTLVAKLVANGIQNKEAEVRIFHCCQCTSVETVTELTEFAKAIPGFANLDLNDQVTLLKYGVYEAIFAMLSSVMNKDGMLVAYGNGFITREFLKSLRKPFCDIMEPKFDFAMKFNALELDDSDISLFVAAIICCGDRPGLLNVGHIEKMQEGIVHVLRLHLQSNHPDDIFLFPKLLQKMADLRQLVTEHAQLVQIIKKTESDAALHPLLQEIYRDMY
Description: as §1

## CC(C)Cc1ccc(C(C)C(=O)OCc2ccc(CC(SCCc3ccc(F)cc3)C(=O)O)cc2)cc1 (centres unmarked) [Example 9, 2-[2-(4-Fluoro-phenyl)-ethylsulfanyl]-3-{4-[2-(4-isobutyl-phenyl)-propionyloxymethyl]-phenyl}-propionic acid]
Human PPARgamma
  pEC50: 6.03
Human PPARalpha
  pEC50: 5.82

## Cc1oc(-c2ccccc2)nc1CC(=O)OCc1ccc(CC(SCCc2ccc(F)cc2)C(=O)O)cc1 (centres unmarked) [Example 15, 2-[2-(4-Fluoro-phenyl)-ethylsulfanyl]-3-{4-[2-(5-methyl-2-phenyl-oxazol-4-yl)acetoxymethyl]-phenyl}-propionic acid]
Human PPARgamma
  pEC50: 6.08
Human PPARalpha
  pEC50: 6.89

## O=C(Cc1ccc(CC(SCCc2ccc(F)cc2)C(=O)O)cc1)OCc1ccc(C(F)(F)F)cc1 (centres unmarked) [Example 3, 2-[2-(4-Fluoro-phenyl)-ethylsulfanyl]-3-[4-(4-trifluoromethyl-benzyloxycarbonylmethyl)-phenyl]-propionic acid]
Human PPARgamma
  pEC50: 5.77
Human PPARalpha
  pEC50: 7.25

## O=C(Cc1ccc(SCc2ccccc2C(=O)O)cc1)OCc1ccc(-n2cccn2)cc1 [Example 43, 2-[4-(4-Pyrazol-1-yl-benzyloxycarbonylmethyl)-phenylsulfanylmethyl]-benzoic acid]
Human PPARgamma
  pEC50: 5.38
Human PPARalpha
  pEC50: 4.80

## O=C(Cc1cccc(SCc2ccccc2C(=O)O)c1)OCc1ccc(-n2cccn2)cc1 [Example 42, 2-[3-(4-Pyrazol-1-yl-benzyloxycarbonylmethyl)-phenylsulfanylmethyl]-benzoic acid]
Human PPARgamma
  pEC50: 5.38
Human PPARalpha
  pEC50: 4.74

## CS(=O)(=O)Oc1ccc(CC(=O)OCCc2ccc(CC(SCCc3ccc(F)cc3)C(=O)O)cc2)cc1 (centres unmarked) [Example 5, 2-[2-(4-Fluoro-phenyl)-ethylsulfanyl]-3-(4-{2-[2-(4-methanesulfonyloxy-phenyl)-acetoxy]-ethyl}-phenyl)-propionic acid]
Human PPARgamma
  pEC50: 5.22
Human PPARalpha
  pEC50: 6.70

## O=C(Cc1ccc(CC(C(=O)O)S(=O)(=O)CCc2ccc(F)cc2)cc1)OCc1ccc(C(F)(F)F)cc1 (centres unmarked) [Example 17, 2-[2-(4-Fluoro-phenyl)-ethanesulfonyl]-3-[4-(4-trifluoromethyl-benzyloxycarbonylmethyl)-phenyl]-propionic acid]
Human PPARgamma
  pEC50: 4.74
Human PPARalpha
  pEC50: 5.36

## O=C(Cc1cccc(SCc2ccccc2C(=O)O)c1)OCc1ccc(C(F)(F)F)cc1 [Example 28, 2-[3-(4-Trifluoromethyl-benzyloxycarbonylmethyl)-phenylsulfanylmethyl]-benzoic acid]
Human PPARgamma
  pEC50: 5.60
Human PPARalpha
  pEC50: 5.89

## O=C(OCc1ccc(CC(SCCc2ccc(F)cc2)C(=O)O)cc1)c1nc(-c2ccccc2)oc1C(F)(F)F (centres unmarked) [Example 13, 2-Phenyl-5-trifluoromethyl-oxazole-4-carboxylic acid 4-{2-carboxy-2-[2-(4-fluoro-phenyl)-ethylsulfanyl]-ethyl}-benzyl ester]
Human PPARgamma
  pEC50: 7.52
Human PPARalpha
  pEC50: 7.92

## O=C(Cc1ccc(C(F)(F)F)cc1)OCc1ccc(SCc2ccccc2C(=O)O)cc1 [Example 29, 2-{4-[2-(4-Trifluoromethyl-phenyl)-acetoxymethyl]-phenylsulfanylmethyl}-benzoic acid]
Human PPARgamma
  pEC50: 6.12
Human PPARalpha
  pEC50: 7.54

## COc1ccc(CCOC(=O)Cc2cccc(SCc3ccccc3C(=O)O)c2)cc1OC [Example 44, 2-{3-[2-(3,4-Dimethoxy-phenyl)-ethoxycarbonylmethyl]-phenylsulfanylmethyl}-benzoic acid]
Human PPARgamma
  pEC50: 4.96
Human PPARalpha
  pEC50: 4.74

## CN1CCN(CC(=O)OCc2ccc(CC(SCCc3ccc(F)cc3)C(=O)O)cc2)CC1 (centres unmarked) [Example 11, 2-[2-(4-Fluoro-phenyl)-ethylsulfanyl]-3-{4-[2-(4-methyl-piperazin-1-yl)-acetoxymethyl]-phenyl}-propionic acid]
Human PPARgamma
  pEC50: 6.09
Human PPARalpha
  pEC50: 6.82

## COc1ccc(CCOC(=O)Cc2ccc(SCc3ccccc3C(=O)O)cc2)cc1OC [Example 36, 2-{4-[2-(3,4-Dimethoxy-phenyl)-ethoxycarbonylmethyl]-phenylsulfanylmethyl}-benzoic acid]
Human PPARgamma
  pEC50: 5.15
Human PPARalpha
  pEC50: 4.68

## CS(=O)(=O)Oc1ccc(CC(=O)OCCCc2ccc(CC(SCCc3ccc(F)cc3)C(=O)O)cc2)cc1 (centres unmarked) [Example 6, 2-[2-(4-Fluoro-phenyl)-ethylsulfanyl]-3-(4-{3-[2-(4-methanesulfonyloxy-phenyl)-acetoxy]-propyl}-phenyl)-propionic acid]
Human PPARgamma
  pEC50: 4.74
Human PPARalpha
  pEC50: 6.48

## Cc1oc(-c2ccccc2)nc1CCOC(=O)c1ccc(CC(SCCc2ccc(F)cc2)C(=O)O)cc1 (single isomer, unassigned) [Example 20, 4-{(−)-2-Carboxy-2-[2-(4-fluoro-phenyl)-ethylsulfanyl]-ethyl}-benzoic acid 2-(5-methyl-2-phenyl-oxazol-4-yl)-ethyl ester]
Human PPARgamma
  pEC50: 7.14
Human PPARalpha
  pEC50: 6.08

## CC(OC(=O)Cc1cccc(SCc2ccccc2C(=O)O)c1)c1ccc(C(F)(F)F)cc1 (centres unmarked) [Example 31, 2-{3-[1-(4-Trifluoromethyl-phenyl)-ethoxycarbonylmethyl]phenylsulfanylmethyl}-benzoic acid]
Human PPARgamma
  pEC50: 5.46
Human PPARalpha
  pEC50: 4.74

## O=C(Cc1ccc(SCc2ccccc2C(=O)O)cc1)OCc1ccc(C(F)(F)F)cc1 [Example 30, 2-[4-(4-Trifluoromethyl-benzyloxycarbonylmethyl)-phenylsulfanylmethyl]-benzoic acid]
Human PPARgamma
  pEC50: 5.77
Human PPARalpha
  pEC50: 6.80

## COC(=O)C(Cc1ccccc1)OC(=O)Cc1ccc(SCc2ccccc2C(=O)O)cc1 (centres unmarked) [Example 37, 2-[4-(1-Methoxycarbonyl-2-phenylethoxycarbonylmethyl)phenylsulfanylmethyl]-benzoic acid]
Human PPARgamma
  pEC50: 5.41
Human PPARalpha
  pEC50: 5.66

## O=C(Cc1cccc(SCc2ccccc2C(=O)O)c1)OCCc1ccc(C(F)(F)F)cc1 [Example 32, 2-{3-[2-(4-Trifluoromethyl-phenyl)-ethoxycarbonylmethyl]-phenylsulfanylmethyl}-benzoic acid]
Human PPARgamma
  pEC50: 5.52
Human PPARalpha
  pEC50: 5.26

## Cc1oc(-c2ccccc2)nc1CCOC(=O)c1ccc(CC(SCCc2ccc(F)cc2)C(=O)O)cc1 (centres unmarked) [Example 14, 4-{2-Carboxy-2-[2-(4-fluoro-phenyl)-ethylsulfanyl]-ethyl}-benzoic acid 2-(5-methyl-2 phenyl-oxazol-4-yl)-ethyl ester]
Human PPARgamma
  pEC50: 6.96
Human PPARalpha
  pEC50: 5.85

## Cc1oc(-c2ccccc2)nc1CC(=O)OCc1ccc(CC(SCCc2ccc(F)cc2)C(=O)O)cc1 (single isomer, unassigned; (-)) [Example 19, (−)-2-[2-(4-Fluoro-phenyl)-ethylsulfanyl]-3-{4-[2-(5-methyl-2-phenyl-oxazol-4-yl)-acetoxymethyl]-phenyl}-propionic acid]
Human PPARgamma
  pEC50: 6.33
Human PPARalpha
  pEC50: 7.14

## Cc1cccc(C)c1COC(=O)Cc1cccc(SCc2ccccc2C(=O)O)c1 [Example 41, 2-[3-(2,6-Dimethyl-benzyloxycarbonylmethyl)-phenylsulfanylmethyl]-benzoic acid]
Human PPARgamma
  pEC50: 5.42
Human PPARalpha
  pEC50: 4.82

## CC(C(=O)OCc1ccc(CC(SCCc2ccc(F)cc2)C(=O)O)cc1)c1ccccc1 (centres unmarked) [Example 7, 2-[2-(4-Fluoro-phenyl)-ethylsulfanyl]-3-[4-(2-phenyl-propionyloxymethyl)-phenyl]-propionic acid]
Human PPARgamma
  pEC50: 5.77
Human PPARalpha
  pEC50: 4.74

## COC(=O)C(Cc1ccccc1)OC(=O)Cc1cccc(SCc2ccccc2C(=O)O)c1 (centres unmarked) [Example 35, 2-[3-(1-Methoxycarbonyl-2-phenyl-ethoxycarbonylmethyl)-phenylsulfanylmethyl]-benzoic acid]
Human PPARgamma
  pEC50: 5.22
Human PPARalpha
  pEC50: 4.66

## CCO[C@@H](Cc1ccc(OC(=O)Cc2ccc(NC(=O)OC(C)(C)C)cc2)cc1)C(=O)O [Example 22, (S)-3-{4-[2-(4-tert-Butoxycarbonylamino-phenyl)-acetoxy]-phenyl}-2-ethoxy-propionic acid]
Human PPARgamma
  pEC50: 4.74
Human PPARalpha
  pEC50: 4.74
